# Reference: ChEMBL document CHEMBL1201862, “PubChem BioAssay data set” (2004)
# Activity calls are given as the source filed them.
# Legend:
# [1] = molecular target: T1, Heat shock factor protein 1 (Mus musculus, UniProt P38532); assay: enhancement of HSF1-driven luciferase signal – cell-based, NIH3T3, luminescence, dose retest, confirmation (AID 435004); assay type: functional;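 note: stress induced by proteasome inhibitor MG132 added 30 min after compound; luciferase reporter driven by HSF1 response element in NIH3T3 cells; actives raise luminescence as potentiators of the MG132 stress response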
# T1 sequence (P38532 whole entry): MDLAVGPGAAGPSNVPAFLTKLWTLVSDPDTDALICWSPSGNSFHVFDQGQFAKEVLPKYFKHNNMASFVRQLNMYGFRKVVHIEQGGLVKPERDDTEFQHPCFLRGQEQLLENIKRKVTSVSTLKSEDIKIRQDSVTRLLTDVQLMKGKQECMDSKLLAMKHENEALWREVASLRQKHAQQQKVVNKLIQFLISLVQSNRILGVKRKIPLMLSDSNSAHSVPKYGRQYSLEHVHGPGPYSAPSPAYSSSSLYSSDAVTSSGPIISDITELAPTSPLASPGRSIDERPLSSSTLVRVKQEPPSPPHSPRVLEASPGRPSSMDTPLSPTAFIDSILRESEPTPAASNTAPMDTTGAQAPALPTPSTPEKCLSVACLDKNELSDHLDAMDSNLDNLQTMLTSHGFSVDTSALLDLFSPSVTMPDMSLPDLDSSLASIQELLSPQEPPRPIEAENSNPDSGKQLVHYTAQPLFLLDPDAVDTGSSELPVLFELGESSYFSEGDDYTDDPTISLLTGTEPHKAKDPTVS
# [2] = molecular target: T2, Rac GTPase-activating protein 1 (Homo sapiens, UniProt Q9H0H5); assay: blockers of MgcRacGAP-driven Rac1 GTP hydrolysis – biochemical, ADP Hunter fluorescence, primary and confirmatory, confirmation (AID 624330); assay type: functional
# T2 sequence (Q9H0H5 whole entry): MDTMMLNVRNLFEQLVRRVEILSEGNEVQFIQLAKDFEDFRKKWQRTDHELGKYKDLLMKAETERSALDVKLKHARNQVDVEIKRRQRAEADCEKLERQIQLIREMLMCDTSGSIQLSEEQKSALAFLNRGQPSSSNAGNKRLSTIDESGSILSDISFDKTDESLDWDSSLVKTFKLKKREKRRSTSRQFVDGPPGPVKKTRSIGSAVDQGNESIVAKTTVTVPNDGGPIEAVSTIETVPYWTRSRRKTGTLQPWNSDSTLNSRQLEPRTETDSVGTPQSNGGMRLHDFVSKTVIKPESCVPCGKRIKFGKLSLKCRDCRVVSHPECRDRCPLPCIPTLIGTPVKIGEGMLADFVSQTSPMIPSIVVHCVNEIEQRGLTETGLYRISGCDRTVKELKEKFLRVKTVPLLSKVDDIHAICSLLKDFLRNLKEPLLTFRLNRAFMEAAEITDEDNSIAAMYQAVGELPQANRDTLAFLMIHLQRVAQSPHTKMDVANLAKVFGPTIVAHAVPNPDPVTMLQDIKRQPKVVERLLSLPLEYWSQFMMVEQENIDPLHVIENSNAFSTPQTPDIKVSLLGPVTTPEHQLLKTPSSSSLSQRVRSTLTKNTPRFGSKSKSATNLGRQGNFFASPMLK
# [3] = test system: Streptococcus sp. 'group A'; assay: Streptococcus pyogenes SK(-)GAS viability under kanamycin – luminescence, BacTiterGlo, confirmation, counter-screen for streptokinase expression inhibitor project, dose response (AID 1900); assay type: functional, organism-based
# Streptococcus = assay: GAS UMAA2166 growth inhibition – luminescence, BacTiterGlo, counter-screen for streptokinase expression inhibitor project, dose response (AID 1915); assay type: functional, organism-based;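 note: potency for reduction of bacterial viability or growth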
# Streptokinase A = molecular target: T3, Streptokinase A (Streptococcus pyogenes serotype M1, UniProt P10520); assay: viability-normalized secreted streptokinase activity reduction – plasminogen activation absorbance, OD405, dose response (AID 1914); assay type: functional, Streptococcus pyogenes M1 GAS;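 note: secreted streptokinase activity via plasminogen activation per viability signal from cell pellet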
# T3 sequence (P10520 whole entry): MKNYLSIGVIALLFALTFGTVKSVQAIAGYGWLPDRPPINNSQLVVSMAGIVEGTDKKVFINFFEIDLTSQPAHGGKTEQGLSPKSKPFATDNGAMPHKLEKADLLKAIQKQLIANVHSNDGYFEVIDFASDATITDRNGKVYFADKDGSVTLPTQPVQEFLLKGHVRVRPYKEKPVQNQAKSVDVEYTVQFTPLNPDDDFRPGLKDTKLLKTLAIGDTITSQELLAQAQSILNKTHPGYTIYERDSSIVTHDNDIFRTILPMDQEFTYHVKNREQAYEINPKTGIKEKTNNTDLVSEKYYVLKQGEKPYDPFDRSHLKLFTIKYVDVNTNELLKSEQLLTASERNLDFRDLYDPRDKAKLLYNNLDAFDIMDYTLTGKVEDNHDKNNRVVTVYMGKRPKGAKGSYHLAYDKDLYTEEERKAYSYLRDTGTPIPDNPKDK
# [4] = molecular target: T4, Heat shock protein HSP 90-alpha (Homo sapiens, UniProt P07900); assay type: functional, organism-based
# Beta Lactamase = Beta Lactamase (Pseudomonas aeruginosa, UniProt Q932Y6); assay: BLA reporter interference, concentration series – BLA reporter cells, FRET fluorescence, artefact control for NOD2-RIPK2 interaction inhibitor project, dose response (AID 651552); assay type: functional, cell-based
# Sequence of Beta Lactamase (Q932Y6 whole entry, the tested form may be a part): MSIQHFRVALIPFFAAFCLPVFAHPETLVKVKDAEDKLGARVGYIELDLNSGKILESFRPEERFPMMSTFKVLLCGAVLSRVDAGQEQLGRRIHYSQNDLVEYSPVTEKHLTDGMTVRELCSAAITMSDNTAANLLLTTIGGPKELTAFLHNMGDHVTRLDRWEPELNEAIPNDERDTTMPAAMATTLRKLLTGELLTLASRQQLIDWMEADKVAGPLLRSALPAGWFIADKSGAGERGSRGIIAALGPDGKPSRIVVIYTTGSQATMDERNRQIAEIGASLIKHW
# [5] = Fluorescence-based cell-based high throughput dose response assay for inhibitors of the interaction of nucleotide-binding oligomerization domain containing 2 (NOD2) and the receptor-interacting serine-threonine kinase 2 (RIPK2).; assay type: functional; conditions: Homo sapiens
# INS1 = assay: INS-1E survival protection against cytokine death – cell-based, luminescence, retest, dose response (AID 449756); assay type: functional; conditions: Rattus norvegicus;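 note: cell death triggered by IL-1 beta plus TNF-alpha plus IFN-gamma mixture; protective hits raise ATP signal compared with cytokine alone wells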
# [6] = molecular target: T4, Heat shock protein HSP 90-alpha; assay: Luminescence-based dose response biochemical high throughput screening assay for inhibitors of the Heat Shock Protein 90 (HSP90). [Related pubchem assays: 1831 (Summary AID.), 1846 (Confirmation screen.), 1789 (Primary screen.)]
# [7] = viability loss in HeLa cells – cytotoxicity control for MgcRacGAP inhibitor project, dose response (AID 624300); assay type: functional
# [8] = molecular target: T5, Sentrin-specific protease 1 (Homo sapiens, UniProt Q9P0U3); assay: Dose response confirmation of small molecule inhibitors of the catalytic domain of the SUMO protease, SENP1 in a FRET assay.; assay type: functional; conditions: read-out: IC50_Mean
# T5 sequence (Q9P0U3 whole entry, the tested form may be a part): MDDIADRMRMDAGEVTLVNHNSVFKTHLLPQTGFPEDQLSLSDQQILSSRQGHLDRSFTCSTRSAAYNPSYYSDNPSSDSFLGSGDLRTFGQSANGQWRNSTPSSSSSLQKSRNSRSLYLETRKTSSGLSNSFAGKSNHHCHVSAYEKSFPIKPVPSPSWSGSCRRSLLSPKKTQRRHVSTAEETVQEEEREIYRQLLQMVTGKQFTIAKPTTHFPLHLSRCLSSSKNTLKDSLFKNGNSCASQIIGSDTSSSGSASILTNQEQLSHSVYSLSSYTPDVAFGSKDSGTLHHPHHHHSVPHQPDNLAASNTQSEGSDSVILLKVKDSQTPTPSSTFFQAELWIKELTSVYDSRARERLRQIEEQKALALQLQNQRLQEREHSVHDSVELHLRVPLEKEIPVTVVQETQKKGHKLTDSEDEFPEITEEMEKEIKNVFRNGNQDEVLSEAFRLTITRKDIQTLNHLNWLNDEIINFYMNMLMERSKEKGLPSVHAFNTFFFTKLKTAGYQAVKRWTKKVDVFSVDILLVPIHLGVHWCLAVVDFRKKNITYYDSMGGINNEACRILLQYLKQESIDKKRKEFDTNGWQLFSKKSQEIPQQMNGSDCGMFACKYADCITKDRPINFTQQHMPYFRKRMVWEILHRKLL
# [9] = molecular target: T5, Sentrin-specific protease 1; assay: SENP1 catalytic domain blockers, concentration series – biochemical, kinetic FRET, dose response (AID 651697); assay type: functional; conditions: read-out: IC50_Mean
# Beta-lactamase [10] = molecular target: Beta-lactamase (Salmonella choleraesuis (strain SC-B67), UniProt Q5J463)
# Sequence of Beta-lactamase (Salmonella choleraesuis (strain SC-B67), UniProt Q5J463) (Q5J463 whole entry): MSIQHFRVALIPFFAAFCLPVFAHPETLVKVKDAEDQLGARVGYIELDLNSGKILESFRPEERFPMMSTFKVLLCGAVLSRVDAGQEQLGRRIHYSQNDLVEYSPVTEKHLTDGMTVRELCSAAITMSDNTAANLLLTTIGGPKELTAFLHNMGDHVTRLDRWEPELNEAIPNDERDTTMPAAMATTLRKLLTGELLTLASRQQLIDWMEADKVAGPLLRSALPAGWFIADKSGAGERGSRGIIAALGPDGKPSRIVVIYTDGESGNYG
# [11] = molecular target: T6, Endoribonuclease toxin MazF (Escherichia coli K-12, UniProt P0AE70); assay: substrate-only fluorescence increase artefacts – biochemical, single-stranded RNase substrate, counter-screen for MazEF activator project, dose response (AID 588502); assay type: functional
# T6 sequence (P0AE70 whole entry): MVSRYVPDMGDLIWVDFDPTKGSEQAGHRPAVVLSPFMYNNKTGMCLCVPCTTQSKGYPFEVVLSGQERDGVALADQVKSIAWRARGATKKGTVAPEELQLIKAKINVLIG
# [12] = molecular target: T6, Endoribonuclease toxin MazF; assay: activation of MazEF endoribonuclease cleavage – biochemical, fluorescence, single-stranded RNA substrate, uHTS hits, dose response (AID 588481); assay type: functional
# Beta-lactamase [13] = molecular target: Beta-lactamase (Pseudomonas aeruginosa, UniProt Q79MP6);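 note: biochemical dose-response test of metallo-beta-lactamase enzyme inhibition, read out by epi-absorbance; purified recombinant IMP-1 metallo-beta-lactamase with nitrocefin as substrate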
# Sequence of Beta-lactamase (Pseudomonas aeruginosa, UniProt Q79MP6) (Q79MP6 whole entry): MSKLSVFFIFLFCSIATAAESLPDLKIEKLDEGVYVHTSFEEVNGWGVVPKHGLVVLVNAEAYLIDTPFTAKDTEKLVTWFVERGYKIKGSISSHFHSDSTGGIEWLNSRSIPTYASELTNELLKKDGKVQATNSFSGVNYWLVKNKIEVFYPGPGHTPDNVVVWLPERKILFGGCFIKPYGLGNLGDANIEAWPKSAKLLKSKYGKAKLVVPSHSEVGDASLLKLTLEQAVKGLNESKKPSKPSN
# [14] = activation of miR-122 Renilla sensor silencing – cell-based, Huh7 psiCHECK-miR122, Renilla luciferase, cherry-picked, dose response (AID 651956); assay type: functional;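 note: huh7 hepatoma cells stably carrying a psiCHECK-2 miR-122 sensor plasmid; renilla luciferase signal reporting endogenous miR-122 activity after 48 h compound exposure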
# [15] = molecular target: T7, Low molecular weight phosphotyrosine protein phosphatase (Homo sapiens, UniProt P24666); assay type: functional; conditions: read-out: IC50_Mean
# T7 sequence (P24666 whole entry): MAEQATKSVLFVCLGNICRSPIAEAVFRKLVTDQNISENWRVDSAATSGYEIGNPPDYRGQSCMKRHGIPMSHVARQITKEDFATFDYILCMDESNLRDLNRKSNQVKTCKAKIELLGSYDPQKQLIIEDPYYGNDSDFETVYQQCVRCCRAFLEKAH
# [16] = molecular target: T7, Low molecular weight phosphotyrosine protein phosphatase; assay type: functional; conditions: read-out: IC50_Mean; remark: listed apart in the source
# [17] = alpha-synuclein stem-loop luciferase translation blockers – H4 neuroglioma cells, luminescence, confirmation (AID 1988); assay type: functional, cell-based
# [18] = cytotoxicity toward MDA-MB-231 breast cancer cells – cell-based, CellTiter-Glo luminescence, cherry-pick, cytotoxicity control for RAD54 inhibitor project, dose response (AID 651692); assay type: functional
# [19] = molecular target: G-protein coupled receptor 55 (Homo sapiens, UniProt Q9Y2T6); assay: inhibition of LPI-stimulated GPR55 beta-arrestin translocation – imaging, U2OS, beta-arrestin-GFP, LPI agonist, primary screen (AID 2013); assay type: functional;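 note: antagonist potency measured as reduced agonist-driven arrestin aggregation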
# Sequence of G-protein coupled receptor 55 (Q9Y2T6 whole entry): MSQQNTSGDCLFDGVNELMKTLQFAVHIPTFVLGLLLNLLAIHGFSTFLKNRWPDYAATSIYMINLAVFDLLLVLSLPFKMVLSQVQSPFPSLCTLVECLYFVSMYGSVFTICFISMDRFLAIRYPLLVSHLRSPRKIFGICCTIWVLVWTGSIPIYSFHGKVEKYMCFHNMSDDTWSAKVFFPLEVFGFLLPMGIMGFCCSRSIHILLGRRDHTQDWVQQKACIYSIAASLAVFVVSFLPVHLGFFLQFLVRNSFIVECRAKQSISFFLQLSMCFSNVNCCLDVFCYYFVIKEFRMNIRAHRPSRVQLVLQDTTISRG
# [20] = luciferase reporter signal suppression in cells – H4 neuroglioma cells, luminescence, dose response (AID 1990); assay type: functional, cell-based
# [21] = general cell-killing toxicity readout – plate reader, dry powder samples, cytotoxicity control for PAX8 inhibitor project, dose response (AID 743021); assay type: functional, cell-based
# [22] = molecular target: T8, DNA repair and recombination protein RAD54-like (Homo sapiens, UniProt Q92698); assay: RAD54 Holliday junction migration blockers – biochemical, fluorescence, cherry-picked samples, dose series, confirmation (AID 651657); assay type: functional
# T8 sequence (Q92698 whole entry): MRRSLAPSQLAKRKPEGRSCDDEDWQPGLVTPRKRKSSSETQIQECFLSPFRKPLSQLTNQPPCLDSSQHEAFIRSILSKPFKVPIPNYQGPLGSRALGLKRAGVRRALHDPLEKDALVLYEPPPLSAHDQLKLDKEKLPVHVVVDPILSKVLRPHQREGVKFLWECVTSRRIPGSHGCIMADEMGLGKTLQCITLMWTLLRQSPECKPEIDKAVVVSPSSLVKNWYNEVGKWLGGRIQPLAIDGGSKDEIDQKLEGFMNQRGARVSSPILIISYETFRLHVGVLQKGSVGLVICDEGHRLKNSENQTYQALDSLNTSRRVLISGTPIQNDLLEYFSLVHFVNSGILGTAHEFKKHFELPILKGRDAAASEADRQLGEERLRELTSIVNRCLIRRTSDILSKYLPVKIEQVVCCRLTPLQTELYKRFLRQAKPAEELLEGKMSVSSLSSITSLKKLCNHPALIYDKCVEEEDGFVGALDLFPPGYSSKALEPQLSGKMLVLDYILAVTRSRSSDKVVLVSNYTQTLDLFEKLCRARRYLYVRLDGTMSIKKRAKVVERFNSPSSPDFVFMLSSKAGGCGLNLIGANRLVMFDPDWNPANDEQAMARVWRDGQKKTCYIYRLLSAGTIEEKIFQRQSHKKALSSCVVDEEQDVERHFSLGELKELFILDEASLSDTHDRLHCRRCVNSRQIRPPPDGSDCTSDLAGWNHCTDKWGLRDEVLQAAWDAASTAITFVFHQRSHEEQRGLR
# BJ [23] = assay: growth inhibition of engineered Ras-driven BJ cells – cell-based, alamar blue fluorescence, cherrypicked samples, dose response (AID 2631); assay type: functional; conditions: Homo sapiens;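 note: confirmatory dose-response assay in RAS-dependent BJ fibroblasts engineered with TERT, LT and ST, with cytotoxicity read by fluorescence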
# [24] = molecular target: DNA repair protein RAD52 homolog (Homo sapiens, UniProt P43351); assay type: functional, biochemical
# Sequence of DNA repair protein RAD52 homolog (P43351 whole entry): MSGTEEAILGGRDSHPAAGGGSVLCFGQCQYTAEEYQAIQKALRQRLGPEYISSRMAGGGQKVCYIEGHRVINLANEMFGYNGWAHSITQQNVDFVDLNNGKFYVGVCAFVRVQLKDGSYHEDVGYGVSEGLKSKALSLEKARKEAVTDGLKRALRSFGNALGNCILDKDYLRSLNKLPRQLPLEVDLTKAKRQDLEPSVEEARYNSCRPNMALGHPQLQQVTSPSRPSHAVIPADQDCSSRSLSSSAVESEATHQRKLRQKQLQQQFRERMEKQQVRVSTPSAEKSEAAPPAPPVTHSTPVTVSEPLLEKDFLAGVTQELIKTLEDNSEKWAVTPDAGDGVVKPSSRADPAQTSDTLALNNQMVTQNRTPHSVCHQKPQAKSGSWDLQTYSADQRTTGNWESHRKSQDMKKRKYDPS
# BJ [25] = assay: cells; assay type: functional, cell-based; conditions: Homo sapiens
# [26] = molecular target: T1, Heat shock factor protein 1; assay: decrease of HSF1-responsive luciferase luminescence – cell-based, NIH3T3, dose retest, confirmation (AID 2382); assay type: functional;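 note: NIH3T3 fibroblasts with HSF1-driven luciferase reporter stressed by proteasome inhibitor MG132; luminescence from HSF1-driven luciferase expression after 8 hours of MG132 stress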
# [27] = DRD fibroblast viability loss – cell-based, non-viral oncogenic, luminescence, dose response (AID 1934); assay type: functional; conditions: Homo sapiens
# Paired box protein Pax-8 = Paired box protein Pax-8 (Homo sapiens, UniProt Q06710); assay: PAX8 transcriptional activity inhibition in RMG-I – RMG-I cells, luciferase, cherry-pick, dose response (AID 687027); assay type: functional, cell-based;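 note: luciferase reporter driven by Pax8 target thyroperoxidase promoter measured by SteadyGlo luminescence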
# Sequence of Paired box protein Pax-8 (Q06710 whole entry): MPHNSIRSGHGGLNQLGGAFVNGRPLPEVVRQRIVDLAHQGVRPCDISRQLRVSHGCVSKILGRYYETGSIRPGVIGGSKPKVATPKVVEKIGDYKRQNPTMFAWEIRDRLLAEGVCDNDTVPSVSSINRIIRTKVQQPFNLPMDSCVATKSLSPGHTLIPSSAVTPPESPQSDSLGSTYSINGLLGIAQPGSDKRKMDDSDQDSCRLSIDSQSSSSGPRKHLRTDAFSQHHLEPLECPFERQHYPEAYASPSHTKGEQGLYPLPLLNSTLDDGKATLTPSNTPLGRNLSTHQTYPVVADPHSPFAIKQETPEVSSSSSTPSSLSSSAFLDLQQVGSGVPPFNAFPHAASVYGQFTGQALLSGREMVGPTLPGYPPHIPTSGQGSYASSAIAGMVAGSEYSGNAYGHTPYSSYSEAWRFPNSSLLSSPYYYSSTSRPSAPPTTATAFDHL
# BJ [28] = assay: BJ-TERT fibroblast viability loss – cell-based, RAS-independent, luminescence, dose response (AID 1933); assay type: functional; conditions: Homo sapiens
# [29] = molecular target: T9, Ubiquitin-conjugating enzyme E2 N (Homo sapiens, UniProt P61088); assay type: functional;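 note: Dose-response confirmation in a TR-FRET assay detecting UBC13-driven polyubiquitin chain formation, inhibition measured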
# T9 sequence (P61088 whole entry): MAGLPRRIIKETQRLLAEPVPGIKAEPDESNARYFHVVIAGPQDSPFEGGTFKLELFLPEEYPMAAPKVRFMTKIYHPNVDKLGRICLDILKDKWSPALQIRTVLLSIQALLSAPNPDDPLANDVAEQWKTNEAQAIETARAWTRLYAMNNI
# BJ [30] = assay: BJ-TERT-LT-ST fibroblast viability loss – cell-based, RAS-independent, luminescence, dose response (AID 1935); assay type: functional; conditions: Homo sapiens;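 note: BJ fibroblasts immortalized with TERT plus LT and ST oncogenes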
compound,measurement,setting,value
O=[N+]([O-])/C=C/c1ccc2c(ccn2Cc2ccccc2)c1,EC50,[1],5.7 µM (active)
same,IC50,[2],23.3 µM (active)
same,EC50,[3],2.91 µM (active)
same,EC50,Streptococcus,11.6 µM (active)
same,EC50,Streptokinase A,6.15 µM (active)
same,AC50,[4],3.42 µM (active)
same,IC50,Beta Lactamase,30 µM (inactive)
same,IC50,[5],1.74 µM (active)
same,AC50,INS1,6.82 µM (active)
same,IC50,[6],2.98 µM (active)
same,CC50,[7],42 µM (active)
O=C1C=C(c2cccc(Cl)c2O)C[C@@H](c2ccc3c(c2)OCO3)C1,IC50,[8],0.993 µM (active)
same,IC50,[9],1.93 µM (active)
CCOc1cc2c(cc1/C=C/c1noc(C)c1[N+](=O)[O-])OC(C)C2 (stereo not given),IC50,Beta-lactamase [10],> 59.6 µM (inactive)
same,EC50,[11],> 99 µM (inactive)
same,EC50,[12],> 99 µM (inactive)
same,IC50,Beta-lactamase [13],> 59.6 µM (inactive)
CN1C(=O)c2cc(NC(=O)c3cccc(C(F)(F)F)c3)ccc2OC[C@H]2O[C@H](CC(=O)NCCN3CCCC3)CC[C@H]21,AC50,[14],38.9 µM (active)
CC(=O)Nc1ccc(CNc2nc(NCC3CC3)nc3ccsc23)cc1,IC50,[15],17 µM (active)
same,IC50,[16],12.6 µM (active)
CN(C)CCNC(=O)c1cc2c(s1)-c1ccc(Cl)cc1SC2,EC50,[17],9.06 µM (active)
same,AC50,[18],11 µM (active)
same,IC50,[19],6.25 µM (active)
same,EC50,[20],> 120 µM (not active)
same,AC50,[21],29.3 µM (active)
same,AC50,[22],60.8 µM (active)
same,EC50,BJ [23],2.18 µM (active)
same,AC50,[24],8.31 µM (active)
same,EC50,BJ [25],5.2 µM (inconclusive)
same,EC50,[26],13.5 µM (active)
same,EC50,[27],5.06 µM (active)
same,AC50,Paired box protein Pax-8,9.29 µM (active)
same,EC50,BJ [28],4.54 µM (active)
same,IC50,[29],> 20 µM (inactive)
same,EC50,BJ [30],5.57 µM (inconclusive)
